The assay relates to IFV A/PR/8/34. The assay can be described thus: cytopathic effect (CPE) antiviral test in MDCK cells, IFV A/PR/8/34. Format: cell-based, influenza virus. The following applies: read-out: EC50(IFV A/PR/8/34).
[1] abbreviates: unidentified influenza virus, PR/8, MDCK, 120 h.

Where two headings read alike, the source gives them in different places.

In the case of `Cn1nncc1-c1ccc2oc(-c3ccnc(C(=O)N4CCN(C(c5ccccc5)c5nnn(C(F)F)n5)CC4)c3)nc2c1` (racemic) [Compound 131, (R/S)-(4-((2-(difluoromethyl)-2H-tetrazol-5-yl)(phenyl)methyl)piperazin-1-yl)(4-(5-(1-methyl-1H-1,2,3-triazol-5-yl)benzo[d]oxazol-2-yl)pyridin-2-yl)methanone], under setting [1], the EC50 stood at 12 nM. For the compound `[2H]C([2H])([2H])C(C(=O)Nc1ccc2oc(-c3ccnc(C(=O)N4CCC(C(c5ccccc5)n5nnc(C)n5)CC4)c3)nc2c1)C([2H])([2H])[2H]` (racemic) [Compound 132, 3,3,3-trideuterio-N-[2-[2-[4-[(R/S)-(5-methyltetrazol-2-yl)-phenyl-methyl]piperidine-1-carbonyl]-4-pyridyl]-1,3-benzoxazol-5-yl]-2-(trideuteriomethyl)propanamide], under setting [1], the EC50 is 4 nM.

On to `Cc1nnn(C(c2ccccc2)C2CCN(C(=O)c3cc(-c4nc5cc(-c6cnn(C)c6)ccc5o4)ccn3)CC2)n1` (racemic) [Compound 133, (R/S)-(4-(5-(1-methyl-1H-pyrazol-4-yl)benzo[d]oxazol-2-yl)pyridin-2-yl)(4-((5-methyl-2H-tetrazol-2-yl)(phenyl)methyl)piperidin-1-yl)methanone], for which the EC50 under setting [1] was found to be 33 nM. Same read-out and setting: for `Cc1nnn(C(c2ccccc2)C2CCN(C(=O)c3cc(-c4nc5cc(NC(=O)C(C)(C)F)ccc5o4)ccn3)CC2)n1` (racemic) [Compound 135, (R/S)-2-fluoro-2-methyl-N-(2-(2-(4-((5-methyl-2H-tetrazol-2-yl)(phenyl)methyl)piperidine-1-carbonyl)pyridin-4-yl)benzo[d]oxazol-5-yl)propanamide] the value was 23 nM; for `[2H]C([2H])([2H])C(C(=O)Nc1ccc2oc(-c3ccnc(C(=O)N4CCC(C(c5ccccc5)n5nnc(C)n5)CC4)c3)cc2c1)C([2H])([2H])[2H]` (racemic) [Compound 137, 3,3,3-trideuterio-N-[2-[2-[4-[(R/S)-(5-methyltetrazol-2-yl)-phenyl-methyl]piperidine-1-carbonyl]-4-pyridyl]benzofuran-5-yl]-2-(trideuteriomethyl)propanamide], 11 nM; for `Cc1nnn(C(c2ccccc2)C2CCN(C(=O)c3cc(-c4nc5cc(-c6cnsc6)ccc5o4)ccn3)CC2)n1` (racemic) [Compound 140, (R/S)-(4-(5-(isothiazol-4-yl)benzo[d]oxazol-2-yl)pyridin-2-yl)(4-((5-methyl-2H-tetrazol-2-yl)(phenyl)methyl)piperidin-1-yl)methanone], 4 nM. On the same count and under the same terms, in the case of `CC(C)(F)C(=O)Nc1ccc2oc(-c3ccnc(C(=O)N4CCN(C(c5ccccc5)c5nnn(C(F)F)n5)CC4)c3)cc2c1` (racemic) [Compound 141, (R/S)—N-(2-(2-(4-((2-(difluoromethyl)-2H-tetrazol-5-yl)(phenyl)methyl)piperazine-1-carbonyl)pyridin-4-yl)benzofuran-5-yl)-2-fluoro-2-methylpropanamide] it was 16 nM; in that of `Cc1nnn(C(c2ccccc2)C2CCN(C(=O)c3cc(-c4cc5cc(NC(=O)C(C)(C)F)ccc5o4)ccn3)CC2)n1` (racemic) [Compound 142, (R/S)-2-fluoro-2-methyl-N-(2-(2-(4-((5-methyl-2H-tetrazol-2-yl)(phenyl)methyl)piperidine-1-carbonyl)pyridin-4-yl)benzofuran-5-yl)propanamide], 23 nM; in that of `O=C(c1cc(-c2cc3cc(NC(=O)C4(F)CC4)ccc3o2)ccn1)N1CCN(C(c2ccccc2)c2nnn(C(F)F)n2)CC1` (racemic) [Compound 143, (R/S)—N-(2-(2-(4-((2-(difluoromethyl)-2H-tetrazol-5-yl)(phenyl)methyl)piperazine-1-carbonyl)pyridin-4-yl)benzofuran-5-yl)-1-fluorocyclopropane-1-carboxamide], 13 nM.

In the case of `Cc1nnn(C(c2ccccc2)C2CCN(C(=O)c3cc(-c4cc5cc(NC(=O)C6(F)CC6)ccc5o4)ccn3)CC2)n1` (racemic) [Compound 144], under setting [1], the EC50 was 7 nM. The same measure, in the same setting: for `CC(C)n1cc(-c2ccc3oc(-c4ccnc(C(=O)N5CCN(C(c6ccccc6)c6nnn(C(F)F)n6)CC5)c4)nc3c2)cn1` (racemic) [Compound 146, (R/S)-(4-((2-(difluoromethyl)-2H-tetrazol-5-yl)(phenyl)methyl)piperazin-1-yl)(4-(5-(1-isopropyl-1H-pyrazol-4-yl)benzo[d]oxazol-2-yl)pyridin-2-yl)methanone] the value was 26 nM; for `Cn1cnc(-c2ccc3oc(-c4ccnc(C(=O)N5CCN(C(c6ccccc6)c6nnn(C(F)F)n6)CC5)c4)nc3c2)c1` (racemic) [Compound 147, (R/S)-(4-((2-(difluoromethyl)-2H-tetrazol-5-yl)(phenyl)methyl)piperazin-1-yl)(4-(5-(1-methyl-1H-imidazol-4-yl)benzo[d]oxazol-2-yl)pyridin-2-yl)methanone], 14 nM. As for `O=C(c1cc(-c2nc3cc(-c4cnn(C5CC5)c4)ccc3o2)ccn1)N1CCN(C(c2ccccc2)c2nnn(C(F)F)n2)CC1` (racemic) [Compound 148, (R/S)-(4-(5-(1-cyclopropyl-1H-pyrazol-4-yl)benzo[d]oxazol-2-yl)pyridin-2-yl)(4-((2-(difluoromethyl)-2H-tetrazol-5-yl)(phenyl)methyl)piperazin-1-yl)methanone], the EC50 under setting [1] turned out to be 33 nM.

As to `O=C(Nc1ccc2oc(-c3ccnc(C(=O)N4CCN(C(c5ccccc5)c5nnn(CF)n5)CC4)c3)nc2c1)[C@@H]1C[C@@H]1F` (mixture of isomers) [Compound 150, (1S,2S)-2-fluoro-N-(2-(2-(4-((S/R)-(2-(fluoromethyl)-2H-tetrazol-5-yl)(phenyl)methyl)piperazine-1-carbonyl)pyridin-4-yl)benzo[d]oxazol-5-yl)cyclopropane-1-carboxamide], the EC50 under setting [1] turned out to be 8 nM. On to `O=C(c1cc(-c2nc3cc(-c4cnn(C5COC5)c4)ccc3o2)ccn1)N1CCN(C(c2ccccc2)c2nnn(C(F)F)n2)CC1` (racemic) [Compound 151, (R/S)-(4-((2-(difluoromethyl)-2H-tetrazol-5-yl)(phenyl)methyl)piperazin-1-yl)(4-(5-(1-(oxetan-3-yl)-1H-pyrazol-4-yl)benzo[d]oxazol-2-yl)pyridin-2-yl)methanone], for which the EC50 under setting [1] was determined as 38 nM. The same measure, in the same setting: for `Cn1nccc1-c1ccc2oc(-c3ccnc(C(=O)N4CCN(C(c5ccccc5)c5nnn(C(F)F)n5)CC4)c3)nc2c1` (racemic) [Compound 152, (R/S)-(4-((2-(difluoromethyl)-2H-tetrazol-5-yl)(phenyl)methyl)piperazin-1-yl)(4-(5-(1-methyl-1H-pyrazol-5-yl)benzo[d]oxazol-2-yl)pyridin-2-yl)methanone] the value was 5 nM; for `Cn1ccc(-c2ccc3oc(-c4ccnc(C(=O)N5CCN(C(c6ccccc6)c6nnn(C(F)F)n6)CC5)c4)nc3c2)n1` (racemic) [Compound 153, (R/S)-(4-((2-(difluoromethyl)-2H-tetrazol-5-yl)(phenyl)methyl)piperazin-1-yl)(4-(5-(1-methyl-1H-pyrazol-3-yl)benzo[d]oxazol-2-yl)pyridin-2-yl)methanone], 7 nM; for `Cc1c(-c2ccc3oc(-c4ccnc(C(=O)N5CCN(C(c6ccccc6)c6nnn(C(F)F)n6)CC5)c4)nc3c2)cnn1C` (racemic) [Compound 154, (R/S)-(4-((2-(difluoromethyl)-2H-tetrazol-5-yl)(phenyl)methyl)piperazin-1-yl)(4-(5-(1,5-dimethyl-1H-pyrazol-4-yl)benzo[d]oxazol-2-yl)pyridin-2-yl)methanone], 5 nM. In the case of `Cc1n[nH]cc1-c1ccc2oc(-c3ccnc(C(=O)N4CCN(C(c5ccccc5)c5nnn(C(F)F)n5)CC4)c3)nc2c1` (racemic) [Compound 155, (R/S)-(4-((2-(difluoromethyl)-2H-tetrazol-5-yl)(phenyl)methyl)piperazin-1-yl)(4-(5-(3-methyl-1H-pyrazol-4-yl)benzo[d]oxazol-2-yl)pyridin-2-yl)methanone], under setting [1], the EC50 worked out at 1 nM. The same measure, in the same setting: for `Cc1n[nH]c(C)c1-c1ccc2oc(-c3ccnc(C(=O)N4CCN(C(c5ccccc5)c5nnn(C(F)F)n5)CC4)c3)nc2c1` (racemic) [Compound 156, (R/S)-(4-((2-(difluoromethyl)-2H-tetrazol-5-yl)(phenyl)methyl)piperazin-1-yl)(4-(5-(3,5-dimethyl-1H-pyrazol-4-yl)benzo[d]oxazol-2-yl)pyridin-2-yl)methanone] the value was 7 nM. Same read-out and setting: for `Cc1cn(-c2ccc3oc(-c4ccnc(C(=O)N5CCN(C(c6ccccc6)c6nnn(C(F)F)n6)CC5)c4)nc3c2)cn1` (racemic) [Compound 158, (R/S)-(4-((2-(difluoromethyl)-2H-tetrazol-5-yl)(phenyl)methyl)piperazin-1-yl)(4-(5-(4-methyl-1H-imidazol-1-yl)benzo[d]oxazol-2-yl)pyridin-2-yl)methanone] the value was 3 nM. In the case of `Cn1cncc1-c1ccc2nc(-c3ccnc(C(=O)N4CCN(C(c5ccccc5)c5nnn(C(F)F)n5)CC4)c3)oc2c1` (racemic) [Compound 160, (R/S)-(4-((2-(difluoromethyl)-2H-tetrazol-5-yl)(phenyl)-13-methyl)piperazin-1-yl)(4-(6-(1-methyl-1H-imidazol-5-yl)benzo[d]oxazol-2-yl)pyridin-2-yl)methanone], the EC50 (MDCK cells, CPE method, CCK-8 cell viability, 5 days) was 18 nM.

For the compound `O=C(c1cc(-c2nc3cc(-c4cnn(C(F)(F)F)c4)ccc3o2)ccn1)N1CCN(C(c2ccccc2)c2nnn(C(F)F)n2)CC1` (racemic) [Compound 161, (R/S)-(4-((2-(difluoromethyl)-2H-tetrazol-5-yl)(phenyl)methyl)piperazin-1-yl)(4-(5-(1-(trifluoromethyl)-1H-pyrazol-4-yl)benzo[d]oxazol-2-yl)pyridin-2-yl)methanone], the EC50 under setting [1] is 20 nM.

Take `Cc1ncc(-c2ccc3oc(-c4ccnc(C(=O)N5CCN(C(c6ccccc6)c6nnn(C(F)F)n6)CC5)c4)nc3c2)n1C` (racemic) [Compound 162, (R/S)-(4-((2-(difluoromethyl)-2H-tetrazol-5-yl)(phenyl)methyl)piperazin-1-yl)(4-(5-(1,2-dimethyl-1H-imidazol-5-yl)benzo[d]oxazol-2-yl)pyridin-2-yl)methanone]: the EC50 under setting [1] was found to be 3 nM.

The values above are taken from patent US20230079045A1 (priority 2019, published 2023).
